ChEMBL document CHEMBL1201862, “PubChem BioAssay data set” (2004)
Activity calls are given as the source filed them. Cut-off read from the data, not from the text of the source: actives have a measured IC50 and inactives only a lower limit.

Molecular target: Envelope glycoprotein gp160 (Human immunodeficiency virus 1, UniProt Q6QLK5)
Test: inhibitors of HIV fusion peptide binding, primary screen, biochemical, uHTS, fluorescence dequenching (AID 1986)

Sequence of Envelope glycoprotein gp160 (Q6QLK5 whole entry, the tested form may be a part): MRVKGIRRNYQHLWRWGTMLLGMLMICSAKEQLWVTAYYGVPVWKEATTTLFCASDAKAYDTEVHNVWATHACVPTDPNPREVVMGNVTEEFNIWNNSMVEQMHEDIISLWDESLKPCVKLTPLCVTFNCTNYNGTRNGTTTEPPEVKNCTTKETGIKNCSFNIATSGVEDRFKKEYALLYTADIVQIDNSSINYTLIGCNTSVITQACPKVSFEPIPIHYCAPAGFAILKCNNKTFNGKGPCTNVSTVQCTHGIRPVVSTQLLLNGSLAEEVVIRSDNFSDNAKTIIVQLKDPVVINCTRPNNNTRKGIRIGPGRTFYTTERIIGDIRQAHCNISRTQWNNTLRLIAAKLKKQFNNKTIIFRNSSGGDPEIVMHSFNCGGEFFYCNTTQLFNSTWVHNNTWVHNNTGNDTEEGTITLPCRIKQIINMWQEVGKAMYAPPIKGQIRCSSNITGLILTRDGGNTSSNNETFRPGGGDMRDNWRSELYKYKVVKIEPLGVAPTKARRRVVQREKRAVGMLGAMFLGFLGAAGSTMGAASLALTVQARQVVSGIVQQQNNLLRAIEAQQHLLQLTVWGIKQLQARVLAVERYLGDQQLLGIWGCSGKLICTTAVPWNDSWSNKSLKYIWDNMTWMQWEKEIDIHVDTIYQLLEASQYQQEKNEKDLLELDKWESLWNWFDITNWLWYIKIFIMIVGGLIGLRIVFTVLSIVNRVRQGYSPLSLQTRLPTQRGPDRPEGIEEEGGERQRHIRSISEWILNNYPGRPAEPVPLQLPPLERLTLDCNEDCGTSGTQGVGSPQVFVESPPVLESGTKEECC

Question: With O=C(O)c1ccc(-c2ccc(/C=c3/sc4nc5ccccc5n4c3=O)o2)cc1Cl as the compound, how does the IC50 read?
Answer: 13.7 µM (active)
